Reference: patent publication US20180344715A1, “WNT/BETA-CATENIN SIGNAL TRANSDUCTION INHIBITORS AND THEIR USE IN TREATMENT OR PREVENTION OF DISEASES AND CONDITIONS LINKED WITH SAID TRANSDUCTION” (BERGEN TEKNOLOGIOVERFORING AS, priority 2015, published 2018)

How the values were obtained:
[1] = tested on: Apc (VilCre^ER Apc^fl/fl) intestinal organoids; assay: Apc mutant intestinal organoid culture; type: cell-based, mouse; conditions: 7 days
From the text: Mouse intestinal Apc (VilCre^ER Apc^fl/fl) organoids were obtained from Owen J. Sansom's laboratory at the Beatson Institute for Cancer Research, Glasgow, UK. The culture protocol has been described previously (14). Briefly, Apc mutant organoids were suspended in Growth Factor Reduced Matrigel (catalog no. 356231; Corning) and cultured in Advanced DMEM/F12 (catalog no. 12634-028; Invitrogen) containing 1% B-27 supplement (50×), minus vitamin A (catalog no. 12587-010; Invitrogen) and 0.1% BSA. Organoids were seeded in 24-well plates at a density of 70-100 organoids/50 μL Matrigel in each well. […] One week later organoids were imaged using the Cytation 5 Cell Imaging Multi-Mode Reader (BioTek Instruments, Inc.).

GFP-SHPRH = target: T1, GFP-SHPRH (Homo sapiens, UniProt Q149N8); assay: MST ligand-binding assay, GFP-SHPRH in SW480 cell lysates; conditions: 25° C., 4 replicates
T1 construct: expressed in transfected cells; host or cells: SW480
Description: Ten million SW480 cells overexpressing GFP-tagged SHPRH or free GFP were lysed in 1 mL radioimmunoprecipitation assay (RIPA) buffer. Cell lysates were diluted in buffer A [50 mM Hepes buffer (pH 7.5), 5 mM DTT, 10 mM CaCl2), 50 mM NaCl, and 0.05% Tween-20] to a final concentration at which the fluorescent signals of the GFP proteins were similar and well above the detection limit of the Monolith NT.115 instrument (NanoTemper Technologies GmbH). Ten microliters of each receptor were mixed with 10 μL of the ligand at various concentrations from 100 μM to 3.05 nM. Specifically, the ligand (4 mM in 100% DMSO) was diluted 1:20 to a final concentration of 200 μM in buffer A (giving 5% DMSO). Ten microliters of the 200 μM ligand solution was further serially diluted 1:1 in 10 μL of buffer A supplemented with 5% DMSO to make a 16-sample dilution series down to 6.1 nM. Ten microliters of the cell lysate were added to 10 μL of each ligand solution. […] The fluorescence signal during the thermophoresis was monitored for 30 s, and the change in fluorescence was analyzed as thermophoresis with T-jump. The Kd was calculated by fitting a standard binding curve to the average of four independent dilution series.

SW480 cells = assay: EdU label release assay, SW480; type: cell-based; conditions: SW480, 5 μM, 3 days; never found in control cells
Description: Two days later, cells were seeded singly onto 12 mm glass coverslips in 24-well plates. One day after, EdU was detected using the Click-iT® Plus EdU Alexa Fluor 488 Imaging Kit (Life Technologies, C10637) according to the manufacturer's protocol. For double staining of EdU and other proteins, the EdU stained cells were further used for immunofluorescence staining as described above. Intensity of EdU staining in paired cells were quantified by Photoshop CS6 software, unequal EdU distribution was considered when paired cells had intensity ratio higher than 2.

β-catenin = assay: In vivo ubiquitination assay in SW480 cells; type: cell-based; conditions: SW480, with proteasome inhibitor MG132, 6 hours
Description: Cells were harvested and re-suspended with 100 μl ice cold TBS (50 mM Tris-HCL pH 8.0, 150 mM NaCl) containing 2 μM N-Ethylmaleimide crystalline that was supplemented to all the following buffers. After adding 120 μl TBS containing 2% SDS and mixing quickly, cells were heated at 98° C. for 10 minutes and placed immediately on ice for 5 minutes. Cell lysates were incubated with 1.8 ml TBS containing 1% Triton X-100 and 3 μg antibody (β-catenin ab22656, clone 12F7, Abcam; SHPRH, ab80129, Abcam), at 4° C. overnight followed by incubation with 100 μl Protein G beads (Life technologies, 10004D) at 4° C. for 1 hour on rotator. Beads were collected with Magnet and serially washed once with 1 ml TBS containing 1% Triton X-100/0.1% SDS, twice with 1 ml TBS containing 0.5M LiCl and once with 1 ml TBS containing 1% Triton X-100. Following addition of 80 μl 2% SDS sample buffer containing 10 mM DTT (Sigma, D9779), the beads were boiled at 98° C. for 5 minutes and collected with Magnet, the supernatant was analyzed by Western blotting.

SW480-7TGC cells = assay: Wnt ACD assay; type: cell-based; conditions: 5 μM; never found in control cells
From the text: Unequal Wnt signaling was considered when paired cells had intensity ratio higher than 2.

transgenic zebrafish = assay: Tailfin regeneration assay in adult TCF-GFP transgenic zebrafish; conditions: 5 μM

T1 sequence (Q149N8 whole entry): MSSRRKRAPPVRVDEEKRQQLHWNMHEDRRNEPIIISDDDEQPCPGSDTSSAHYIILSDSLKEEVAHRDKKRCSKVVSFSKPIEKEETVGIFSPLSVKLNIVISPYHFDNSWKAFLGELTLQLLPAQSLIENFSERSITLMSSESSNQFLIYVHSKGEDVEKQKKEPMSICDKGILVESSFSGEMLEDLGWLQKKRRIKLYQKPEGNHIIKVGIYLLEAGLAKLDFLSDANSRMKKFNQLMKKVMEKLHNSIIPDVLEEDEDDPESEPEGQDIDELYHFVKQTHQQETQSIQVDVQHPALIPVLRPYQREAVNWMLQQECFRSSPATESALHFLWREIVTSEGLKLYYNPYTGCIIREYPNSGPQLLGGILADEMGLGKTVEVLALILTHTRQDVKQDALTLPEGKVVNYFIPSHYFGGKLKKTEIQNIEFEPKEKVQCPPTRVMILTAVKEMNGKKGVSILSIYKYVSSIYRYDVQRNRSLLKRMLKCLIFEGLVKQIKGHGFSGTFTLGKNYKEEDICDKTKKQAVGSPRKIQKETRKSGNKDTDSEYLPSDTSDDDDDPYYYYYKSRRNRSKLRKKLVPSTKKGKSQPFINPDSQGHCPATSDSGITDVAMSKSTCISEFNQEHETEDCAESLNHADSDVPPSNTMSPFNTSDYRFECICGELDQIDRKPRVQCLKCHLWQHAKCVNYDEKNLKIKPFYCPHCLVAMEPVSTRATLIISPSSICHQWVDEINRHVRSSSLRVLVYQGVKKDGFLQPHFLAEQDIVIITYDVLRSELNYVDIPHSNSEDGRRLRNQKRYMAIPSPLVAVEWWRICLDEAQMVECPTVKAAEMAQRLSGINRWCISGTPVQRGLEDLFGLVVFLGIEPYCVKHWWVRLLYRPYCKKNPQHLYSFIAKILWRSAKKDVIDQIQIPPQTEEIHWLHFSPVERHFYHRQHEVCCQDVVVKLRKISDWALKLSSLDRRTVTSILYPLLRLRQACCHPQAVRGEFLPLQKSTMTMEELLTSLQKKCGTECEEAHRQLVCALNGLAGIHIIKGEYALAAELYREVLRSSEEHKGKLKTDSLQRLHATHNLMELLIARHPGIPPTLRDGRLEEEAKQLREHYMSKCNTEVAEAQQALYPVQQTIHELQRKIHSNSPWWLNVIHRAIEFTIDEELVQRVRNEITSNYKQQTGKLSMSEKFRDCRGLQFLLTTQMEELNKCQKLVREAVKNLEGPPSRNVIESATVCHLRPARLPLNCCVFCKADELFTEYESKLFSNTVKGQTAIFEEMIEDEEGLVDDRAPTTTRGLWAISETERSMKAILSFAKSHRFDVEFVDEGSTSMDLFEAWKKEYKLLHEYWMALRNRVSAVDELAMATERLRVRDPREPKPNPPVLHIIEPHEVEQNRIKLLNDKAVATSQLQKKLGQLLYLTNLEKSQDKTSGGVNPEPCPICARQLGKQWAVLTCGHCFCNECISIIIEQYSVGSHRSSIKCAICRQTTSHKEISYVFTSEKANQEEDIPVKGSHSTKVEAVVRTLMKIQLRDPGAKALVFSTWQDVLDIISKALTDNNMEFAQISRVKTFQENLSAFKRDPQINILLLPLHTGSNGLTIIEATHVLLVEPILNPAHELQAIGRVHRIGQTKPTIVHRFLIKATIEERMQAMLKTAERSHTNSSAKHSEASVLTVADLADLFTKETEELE

**Q.** With `CNC(=O)c1ccccc1Sc1ccc2c(/C=C/c3ccccn3)n[nH]c2c1` [axitinib, N-Methyl-2-[[3-[(E)-2-pyridin-2-ylethenyl]-1H-indazol-6-yl]sulfanyl]benzamide] as the compound, how does the “growth of Apc-deleted murine organoids” value [1] read?
**A.** strongly inhibited

**Q.** And the Kd (GFP-SHPRH)?
**A.** 10.4 ± 3.3 µM

**Q.** And the “cells with unequal EdU labelling (EdU ACD)” value (SW480 cells)?
**A.** around 15%

**Q.** What about the “ubiquitination of β-catenin” value (β-catenin) of the same compound?
**A.** increased its ubiquitination

**Q.** And the “paired cells with unequal TCF-GFP expression (Wnt ACD)” value (SW480-7TGC cells)?
**A.** up to 10%

**Q.** What about the “tailfin regrowth and TCF-GFP activation” value (transgenic zebrafish; 6 consecutive days) of the same compound?
**A.** completely inhibited

**Q.** What about the “intestine: crypt-villus architecture and incorporation of BrdU” value (transgenic zebrafish; 6 days) of the same compound?
**A.** no significant change
